Patent publication US20220362232A1, “TOPICAL COMPOSITIONS COMPRISING A MACROLIDE IMMUNOSUPPRESSANT” (BAUSCH HEALTH IRELAND LIMITED, priority 2020, published 2022)

Key:
[1] = Solubility and stability in alkyl diesters of aliphatic dicarboxylic acids; type: physicochemical
[2] = cited from earlier work

Solubility and stability in alkyl diesters of aliphatic dicarboxylic acids [1]	Structure (SMILES)	Solubility in benzyl alcohol, chloroform, acetone, and acetonitrile [2]	Solubility in water [2]	Solubility in methanol and ethanol ([2]; methanol and ethanol)
particularly soluble and stable	C=CC[C@@H]1/C=C(\C)C[C@H](C)C[C@H](OC)[C@H]2O[C@@](O)(C(=O)C(=O)N3CCCC[C@H]3C(=O)O[C@H](/C(C)=C/[C@@H]3CC[C@@H](O)[C@H](OC)C3)[C@H](C)[C@@H](O)CC1=O)[C@H](C)C[C@@H]2OC [Tacrolimus]	soluble	insoluble	–
particularly soluble and stable	CC[C@@H]1/C=C(\C)C[C@H](C)C[C@H](OC)[C@H]2O[C@@](O)(C(=O)C(=O)N3CCCC[C@H]3C(=O)O[C@H](/C(C)=C/[C@@H]3CC[C@H](Cl)[C@H](OC)C3)[C@H](C)[C@@H](O)CC1=O)[C@H](C)C[C@@H]2OC [Pimecrolimus]	–	insoluble	soluble
particularly soluble and stable	CO[C@H]1C[C@@H]2CC[C@@H](C)[C@@](O)(O2)C(=O)C(=O)N2CCCC[C@H]2C(=O)O[C@H]([C@H](C)C[C@@H]2CC[C@@H](O)[C@H](OC)C2)CC(=O)[C@H](C)/C=C(\C)[C@@H](O)[C@@H](OC)C(=O)[C@H](C)C[C@H](C)/C=C/C=C/C=C/1C [Sirolimus]	soluble	insoluble	–
